Laboratory results as given in patent publication US20050164370A1 (priority 2003, published 2005).

Experiments:
[1] = test system: transformed cells TM182-CRE1-CYC1IPT4; details: TM182-CRE1-CYC1IPT4, DOHLU+Glu agar containing 10 μM trans-zeatin, 30° C. for 30 hours
Description: (§1) After incubation, the growth state of the transformed cells was observed and photographed by a digital camera.

[2] = test system: transformed cells TM182-CYC1-ADHIPT4; details: TM182-CYC1-ADHIPT4, DOHLU+Glu agar containing 10 μM trans-zeatin, 30° C. for 30 hours
Description: as §1

[3] = test system: transformed cells TM182-CYC1-CYC1IPT5; details: TM182-CYC1-CYC1IPT5, DOHLU+Glu agar containing 10 μM trans-zeatin, 30° C. for 30 hours
Description: as §1

[4] = test system: transformed cells TM182-AHK2-ADHIPT4; details: TM182-AHK2-ADHIPT4, DOHLU+Glu agar containing 10 μM trans-zeatin, 30° C. for 30 hours
Description: as §1

[5] = test system: transformed cells TM182-CYC1-CYC1IPT4; details: TM182-CYC1-CYC1IPT4, DOHLU+Glu agar containing 10 μM trans-zeatin, 30° C. for 30 hours
Description: as §1

[6] = test system: transformed cells TM182-CYC1-ADHIPT5; details: TM182-CYC1-ADHIPT5, DOHLU+Glu agar containing 10 μM trans-zeatin, 30° C. for 30 hours
Description: as §1

[7] = test system: transformed cells TM182-CRE1-ADHIPT4; details: TM182-CRE1-ADHIPT4, DOHLU+Glu agar containing 10 μM trans-zeatin, 30° C. for 30 hours
Description: as §1

[8] = test system: transformed cells TM182-AHK2-CYC1IPT4; details: TM182-AHK2-CYC1IPT4, DOHLU+Glu agar containing 10 μM trans-zeatin, 30° C. for 30 hours
Description: as §1

[9] = test system: transformed cells TM182-AHK2-CYC1IPT5; details: TM182-AHK2-CYC1IPT5, DOHLU+Glu agar containing 10 μM trans-zeatin, 30° C. for 30 hours
Description: as §1

[10] = test system: transformed cells TM182-AHK2-ADHIPT5; details: TM182-AHK2-ADHIPT5, DOHLU+Glu agar containing 10 μM trans-zeatin, 30° C. for 30 hours
Description: as §1

cytokinin receptor CRE1 = cytokinin receptor CRE1 (Arabidopsis thaliana, UniProt Q9C5U0, S567G/T1018A); details: TM182-CRE1, DOLU+Glu agar, 30° C. for 30 hours
cytokinin receptor CRE1, sequence (Q9C5U0 24-1080 S567G/T1018A): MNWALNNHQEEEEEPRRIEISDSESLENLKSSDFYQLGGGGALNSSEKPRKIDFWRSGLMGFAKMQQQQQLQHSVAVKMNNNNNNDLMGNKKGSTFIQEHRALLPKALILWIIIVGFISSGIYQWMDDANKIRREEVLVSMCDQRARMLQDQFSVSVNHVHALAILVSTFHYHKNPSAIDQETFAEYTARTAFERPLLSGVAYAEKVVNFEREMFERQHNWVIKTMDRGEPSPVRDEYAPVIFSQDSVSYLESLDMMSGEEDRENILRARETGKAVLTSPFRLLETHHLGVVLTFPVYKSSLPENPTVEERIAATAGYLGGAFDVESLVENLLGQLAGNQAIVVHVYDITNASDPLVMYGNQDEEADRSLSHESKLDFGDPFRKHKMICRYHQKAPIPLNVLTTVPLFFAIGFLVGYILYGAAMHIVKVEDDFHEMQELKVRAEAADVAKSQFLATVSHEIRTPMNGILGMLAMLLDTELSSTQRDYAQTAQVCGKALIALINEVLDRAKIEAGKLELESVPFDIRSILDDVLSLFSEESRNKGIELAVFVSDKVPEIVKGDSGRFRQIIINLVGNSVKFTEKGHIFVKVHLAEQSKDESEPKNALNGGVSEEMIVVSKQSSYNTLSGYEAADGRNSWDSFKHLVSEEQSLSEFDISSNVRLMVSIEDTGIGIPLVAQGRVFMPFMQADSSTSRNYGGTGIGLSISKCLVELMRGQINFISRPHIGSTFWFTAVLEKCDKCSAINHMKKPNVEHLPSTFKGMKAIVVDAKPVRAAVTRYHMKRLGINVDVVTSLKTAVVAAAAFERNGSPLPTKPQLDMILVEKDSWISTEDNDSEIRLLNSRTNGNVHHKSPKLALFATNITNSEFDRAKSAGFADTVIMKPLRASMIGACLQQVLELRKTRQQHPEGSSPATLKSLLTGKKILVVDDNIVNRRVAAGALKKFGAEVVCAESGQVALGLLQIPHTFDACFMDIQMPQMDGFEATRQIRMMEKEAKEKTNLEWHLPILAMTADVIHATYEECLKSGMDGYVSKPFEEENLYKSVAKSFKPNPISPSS
Description: (§2) A culture solution 10 μl (about 800 clones of yeast) of the transformed cells TM182-CRE1, TM182-AHK2, TM182-AHK2Δ and TM182-AHK3 produced by the example 12 was spotted on DOLU+Glu agar media containing 10 μM of trans-zeatin and cultured at 30° C. for 30 hours. After incubation, the growth state of the transformed cells was observed and photographed by a digital camera.
(§3) Culture solutions of the transformed cells TM182-CRE1, TM182-AHK2Δ and TM182-AHK2 produced by the reference example 1 were spotted on DOLU+Glu agar media containing cytokinin in a variety of concentrations (1 nM, 10 nM, 100 nM, 1 μM, 10 μM, 100 μM) and cultured at 30° C. for 30 hours. After incubation, the growth state of the transformed cells was observed and photographed by a digital camera.

cytokinin receptor AHK2 = target: T1, cytokinin receptor AHK2 (Arabidopsis thaliana, UniProt Q9C5U2); details: TM182-AHK2, DOLU+Glu agar, 30° C. for 30 hours
T1 sequence (Q9C5U2 1-1176): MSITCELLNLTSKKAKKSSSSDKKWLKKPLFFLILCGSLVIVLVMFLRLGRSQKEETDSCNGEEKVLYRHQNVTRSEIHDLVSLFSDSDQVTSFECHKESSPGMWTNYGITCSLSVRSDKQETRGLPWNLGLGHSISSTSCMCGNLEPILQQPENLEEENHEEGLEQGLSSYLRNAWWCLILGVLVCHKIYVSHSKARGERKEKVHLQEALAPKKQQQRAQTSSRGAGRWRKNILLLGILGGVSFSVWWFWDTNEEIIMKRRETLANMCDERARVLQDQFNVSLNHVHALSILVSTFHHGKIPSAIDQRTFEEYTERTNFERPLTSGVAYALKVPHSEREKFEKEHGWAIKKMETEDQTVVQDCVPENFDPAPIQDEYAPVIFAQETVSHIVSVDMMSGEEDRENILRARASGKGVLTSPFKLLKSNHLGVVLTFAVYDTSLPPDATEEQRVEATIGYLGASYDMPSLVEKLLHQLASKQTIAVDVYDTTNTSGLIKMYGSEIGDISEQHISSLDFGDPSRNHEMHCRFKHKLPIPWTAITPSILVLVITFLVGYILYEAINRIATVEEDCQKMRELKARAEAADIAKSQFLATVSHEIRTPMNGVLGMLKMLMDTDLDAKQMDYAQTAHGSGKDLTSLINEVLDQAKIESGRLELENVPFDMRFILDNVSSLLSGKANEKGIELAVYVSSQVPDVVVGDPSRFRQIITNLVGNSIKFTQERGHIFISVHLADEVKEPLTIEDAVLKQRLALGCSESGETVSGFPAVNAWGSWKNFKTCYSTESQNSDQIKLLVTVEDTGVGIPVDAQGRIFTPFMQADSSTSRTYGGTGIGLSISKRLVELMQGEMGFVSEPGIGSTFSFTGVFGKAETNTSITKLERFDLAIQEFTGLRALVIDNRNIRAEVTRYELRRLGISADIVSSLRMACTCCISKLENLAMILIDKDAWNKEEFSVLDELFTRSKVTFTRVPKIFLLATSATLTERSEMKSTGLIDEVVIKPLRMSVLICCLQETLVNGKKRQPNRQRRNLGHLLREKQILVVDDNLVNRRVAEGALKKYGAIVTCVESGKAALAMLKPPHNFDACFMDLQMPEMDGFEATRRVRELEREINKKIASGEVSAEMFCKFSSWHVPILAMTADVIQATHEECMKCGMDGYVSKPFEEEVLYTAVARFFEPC
Description: as §2, §3

`C/C(=C\CNc1ncnc2nc[nH]c12)CO` [trans-zeatin] was tested, and the “growth state of the transformed cells” value [1] was “observed to grow”, the “growth state of the transformed cells” value [2] was “not observed to grow” and the “growth state of the transformed cells” value [3] was “not observed to grow”. The “growth state of the transformed cells” value [4] was “observed to grow”, the “growth state of the transformed cells” value [5] was “not observed to grow” and the “growth state of the transformed cells” value [6] was “not observed to grow”. The “growth state of the transformed cells” value [7] was “observed to grow”, the “growth state of the transformed cells” value [8] was “observed to grow” and the “growth state of the transformed cells” value [9] was “observed to grow”. For the same molecule, the “growth state of the transformed cells” value [10] was “observed to grow”, the “lowest observed supply concentration in which the transformed cells could be grown” value (cytokinin receptor CRE1; 1 nM to 100 μM tested) was 10 µM and the “growth state of the transformed cells as compared with media containing no trans-zeatin” value (cytokinin receptor CRE1; 10 μM) was “high growth”. The “lowest observed supply concentration in which the transformed cells could be grown” value (cytokinin receptor AHK2; 1 nM to 100 μM tested) was 1 µM and the “growth state of the transformed cells as compared with media containing no trans-zeatin” value (cytokinin receptor AHK2; 10 μM) was “high growth”.
